Values quoted from earlier work in patent US8268549B2, “Method and assay for determining methylation of GAL3 promoter for early diagnosis of prostate cancer” (University of Maryland, Baltimore, priority 2005, dated 2012).

System: galectins

Row | SMILES | relative binding affinity, times less effective than lactose (Lac) (galectins) | ligand quality for chimera galectins (chimera galectins)
1 | O=C[C@H](O)[C@@H](O)[C@@H](O)[C@H](O)CO [D-galactose] | ~200 times | –
2 | CC(=O)N[C@@H]1[C@@H](O[C@@H]2O[C@H](CO)[C@H](O)[C@H](O)[C@H]2O)[C@@H](O)[C@@H](CO)O[C@@H]1O [T-disaccharide] | – | good ligand
